In US20230279024A1, “TRIAZINE COMPOUND AND COMPOSITION AND USE THEREOF” (BEIJING FINDCURE BIOSCIENCES, LTD., priority 2020, published 2023):

Tests used:
[1] = molecular target: AXL (h) kinase (Homo sapiens (Human), UniProt P30530); test: AXL (h) kinase activity test (EZ Reader mobility shift, FLPeptide30); type: biochemical; settings: ATP 100 μM, AXL 1 nM
Protocol: The effect of the disclosed compounds as protein kinase inhibitors can be evaluated by the following experiments. The AXL (h) kinase activity of the compounds of the invention is tested by the following methods:
Reagents used in the experiment were AXL (Carna Bioscience, Cat No.: 08-107) and FLPeptide30 (PerkinElmer, Cat No.: 760430). The instruments involved were thermotank (Thermo Scientific), oscillator (QILINBEIER), EZ Reader (PerkinElmer, Cat No.: 122919), Non-contact stage pipetting system (Labcyte Inc., Cat No.: Echo 550), and non-contact nanoliter pipetting system (TECAN, Cat No.: EVO200).
Compound dilution: 1) Dissolve the compound in DMSO to the appropriate concentration; 2) Using TECAN EVO200 to dilute 10 concentrations in 384 microplates by three times gradient, the highest concentration is 1 mM; Echo550 was used to transfer 20 nL solution from the dilution plate to the test plate.
2) Add 15 μL solution 1 to each well of the test plate and incubate at room temperature for 30 minutes.
4) Add 5 μL solution 2 to start the reaction, and the final volume of each well is 20 μL.
5) Incubated at 25° C. for 90 min, and then added 75 μL stop solution (containing 0.5 M EDTA) to terminate the reaction.
6) The sample of each well was analyzed using EZ reader.
1) Based on the measured conversion rate (CR), the Remaining Activity (%) of the kinase was calculated according to the following function:
2) XLFit (Equation 201) software was used to fit IC50.
The above methods can be used to obtain the inhibitory IC50 and/or inhibitory constant Ki.

[2] = system: Ba/F3 AXL cells; test: Cell activity test: growth inhibition of Ba/F3 AXL cell line (CTG, 72 h); type: cell-based; settings: Mus musculus, BaF3
Protocol: This experiment was conducted by detecting the inhibitory effect of compounds on the growth of Ba/F3 AXL cell line and Ba/F3 parental cell line. Cells in logarithmic growth stage were harvested and counted by platelet counter. Trypan blue rejection method was used to detect cell viability to ensure that the cell viability was above 90%. Adjust cell concentration; 90 μL cell suspension was added to 96-well plates, respectively; Cells in 96-well plates were cultured overnight at 37° C., 5% CO2 and 95% humidity. A 10-fold drug solution was prepared, with the highest concentration of 10 μM, and a total of 9 concentrations were diluted at 3.16 times the ratio. 10 μL drug solution was added to each well of the 96-well plate inoculated with cells, and three wells were set for each drug concentration; 96-well plates were incubated at 37° C., 5% CO2 and 95% humidity for 72 h, and CTG analysis was performed. Thaw the CTG reagent and balance the cell plates to room temperature for 30 minutes. Add the same volume of CTG solution to each well and vibrate on a fixed-rail shaker for 5 minutes to crack the cells. Place the cell plates at room temperature for 20 minutes to stabilize the cold light signal and read the cold light value. The GraphPad Prism 5.0 software was used to analyze the data, and the nonlinear S-curve regression was used to fit the data to obtain the dose-effect curve, and the IC50 value was calculated accordingly. Cell survival rate (%)=(Lum drug to be tested −Lum culture medium control)/(Lum cell control−Lum culture medium control)×100%.

[3] = molecular target: T1, CYP3A4 (Homo sapiens (Human), UniProt P08684); settings: hepatocytes, 2 days, 10 μM
Protocol: (§1) Cryopreservation of human primary hepatocytes was resuscitated in medium after take out from liquid nitrogen. […] Plates were incubated at 37° C. and 5% CO2 for 4-6 hours to confirm the formation of monolayer cells attached to the wall. Then the adherent culture medium was changed into hepatocyte culture medium and the culture was continued overnight.
After the test compounds and positive control inducers were co-incubated with cells, the incubation medium was removed. […] After the samples were extracted and processed, the generation of metabolites and the kinase activities of CYP1A2, 2B6 and 3A4 was quantitatively detected by LC-MS/MS, respectively.
The induction of test substance on each subenzyme was determined by detecting the generation rate of metabolites of CYP450 subenzyme substrates. The relative activity of each subenzyme was expressed as a percentage of the relative blank control, and the data were calculated according to the following formula:
Fold of induction=sample subenzyme activity/blank subenzyme activity
Relative positive control activity (PC %)=(Fold of induction of sample group—Fold of induction of blank group)/(Fold of induction of positive control group—Fold of induction of blank group)×100

[4] = molecular target: T1, CYP3A4; settings: hepatocytes, 2 days, 10 μM; remark: listed apart in the source
Protocol: as §1
After the test compound and positive control inducer were co-incubated with cells, the medium was removed and mercaptoethanol was added for cell lysis. Total RNA in cells was extracted with RNA extraction kit, and then transcribed into cDNA with cDNA reverse transcription kit. The 10 μL cDNA template was taken and analyzed on the fluorescence quantitative PCR instrument to obtain the Ct value.
The gene expression data were corrected by internal reference 18S, and the relative expression differences were determined by the method of ΔΔCt commonly used in fluorescence quantitative PCR.
The ΔCt, ΔΔCt and relative expression difference values of the target genes were calculated according to the following formula:
ΔCt=Ct value of target gene−Ct value of internal reference 18S
ΔΔCt=ΔCt of experimental group or positive control group−ΔCt of blank control group
Relative expression difference (fold of induction)=2−ΔΔ^Ct

[5] = system: CYP3A4/5; test: Inhibition of human liver microsomes CYP450, 3A4/5; type: in vitro ADME; settings: compounds 10 μM (positive control: concentration not given)

Sequence of AXL (h) kinase (P30530 473-894): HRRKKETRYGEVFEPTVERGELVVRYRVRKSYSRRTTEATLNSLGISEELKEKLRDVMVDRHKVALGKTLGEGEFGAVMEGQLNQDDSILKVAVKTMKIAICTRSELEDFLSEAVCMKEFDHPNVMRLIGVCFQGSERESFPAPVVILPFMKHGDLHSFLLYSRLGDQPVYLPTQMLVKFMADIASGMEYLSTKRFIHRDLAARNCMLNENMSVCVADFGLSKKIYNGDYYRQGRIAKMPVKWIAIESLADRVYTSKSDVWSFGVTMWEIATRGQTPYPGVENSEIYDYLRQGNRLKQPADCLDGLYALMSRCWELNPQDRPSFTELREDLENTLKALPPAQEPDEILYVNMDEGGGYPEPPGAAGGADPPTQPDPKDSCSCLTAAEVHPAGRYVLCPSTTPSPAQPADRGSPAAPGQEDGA

Row | Structure (SMILES) | IC50 [1] [nM] | IC50 [2] [nM] | Enzymatic activity CYP3A4 Fold of induction [3] | Gene expression CYP3A4 Fold of induction [4] | Inhibitory rate (%) 3A4/5 [5]
1 | Nc1ncnn2c1c(-c1ccc(NC(=O)c3c4n(n(-c5ccccc5)c3=O)CCOC4)cc1F)cc2[C@H]1CC[C@H](O)CC1 [example 22, N-(4-(4-amino-7-((1r,4r)-4-hydroxycyclohexyl)pyrrolo[2,1-f][1,2,4]triazin-5-yl)-3-fluorophenyl)-2-oxo-1-phenyl-2,4,6,7-tetrahydro-1H-pyrazolo[5,1-c][1,4]oxazine-3-carboxamide] | 5 to 50 | < 5 | 1.02 | 1.31 | No inhibition
2 | Nc1ncnn2c(C3CCN(C(=O)C4CC4)CC3)cc(-c3ccc(NC(=O)c4c5n(n(-c6ccccn6)c4=O)CCCC5)cc3F)c12 [example 10, N-(4-(4-amino-7-(1-(cyclopropanecarbonyl)piperidin-4-yl)pyrrolo[2,1-f][1,2,4]triazin-5-yl)-3-fluorophenyl)-2-oxo-1-(pyridin-2-yl)-1,2,4,5,6,7-hexahydropyrazolo[1,5-a]pyridine-3-carboxamide] |  | < 5 | 0.779 | 24.7 | No inhibition
3 | Nc1ncnn2c1c(-c1ccc(NC(=O)c3c4n(n(-c5ccccn5)c3=O)CCCC4)cc1F)cc2[C@H]1CC[C@H](O)CC1 [example 30, N-(4-(4-amino-7-((1r,4r)-4-hydroxycyclohexyl)pyrrolo[2,1-f][1,2,4]triazin-5-yl)-3-fluorophenyl)-2-oxo-1-(pyridin-2-yl)-1,2,4,5,6,7-hexahydropyrazolo[1,5-a]pyridine-3-carboxamide] | < 5 | < 5 | 0.836 | 1.58 | No inhibition
4 | CC(C)(O)C(=O)N1CCC(c2cc(-c3ccc(NC(=O)c4c5n(n(-c6ccccn6)c4=O)CCCC5)cc3F)c3c(N)ncnn23)CC1 [example 29, N-(4-(4-amino-7-(1-(2-hydroxy-2-methylpropanoyl)piperidin-4-yl)pyrrolo[2,1-f][1,2,4]triazin-5-yl)-3-fluorophenyl)-2-oxo-1-(pyridin-2-yl)-1,2,4,5,6,7-hexahydropyrazolo[1,5-a]pyridine-3-carboxamide] | 5 to 50 | < 5 | 1.06 | 6.37 | 
5 | CC(C)C(=O)N1CCC(c2cc(-c3ccc(NC(=O)c4c5n(n(-c6ccccc6)c4=O)CCCC5)cc3)c3c(N)ncnn23)CC1 [example 19, N-(4-(4-amino-7-(1-isobutyrylpiperidin-4-yl)pyrrolo[2,1-f][1,2,4]triazin-5-yl)phenyl)-2-oxo-1-phenyl-1,2,4,5,6,7-hexahydropyrazolo[1,5-a]pyridine-3-carboxamide] | 5 to 50 | < 5 | 1.5 | 284 | 
6 | CC(C)(F)C(=O)N1CCC(c2cc(-c3ccc(NC(=O)c4c5n(n(-c6ccccn6)c4=O)CCCC5)cc3F)c3c(N)ncnn23)CC1 [example 26, N-(4-(4-amino-7-(1-(2-fluoro-2-methylpropanoyl)piperidin-4-yl)pyrrolo[2,1-f][1,2,4]triazin-5-yl)-3-fluorophenyl)-2-oxo-1-(pyridin-2-yl)-1,2,4,5,6,7-hexahydropyrazolo[1,5-a]pyridine-3-carboxamide] | 5 to 50 | < 5 |  |  | 
7 | Nc1ncnn2c1c(-c1ccc(NC(=O)c3c4n(n(-c5ccccc5)c3=O)CCOC4)cc1)cc2[C@H]1CC[C@H](O)CC1 [example 7, N-(4-(4-amino-7-((1r,4r)-4-hydroxycyclohexyl)pyrrolo[2,1-f][1,2,4]triazin-5-yl)phenyl)-2-oxo-1-phenyl-2,4,6,7-tetrahydro-1H-pyrazolo[5,1-c][1,4]oxazine-3-carboxamide] | < 5 |  |  |  | No inhibition
8 | Nc1ncnn2c(C3CCN(C(=O)C4CC4)CC3)cc(-c3ccc(NC(=O)c4c5n(n(-c6ccccn6)c4=O)CCCC5)cc3)c12 [example 36, N-(4-(4-amino-7-(1-(cyclopropanecarbonyl)piperidin-4-yl)pyrrolo[2,1-f][1,2,4]triazin-5-yl)phenyl)-2-oxo-1-(pyridin-2-yl)-1,2,4,5,6,7-hexahydropyrazolo[1,5-a]pyridine-3-carboxamide] | 5 to 50 | < 5 |  |  | No inhibition
9 | CC(C)C(=O)N1CCC(c2cc(-c3ccc(NC(=O)c4c5n(n(-c6ccccn6)c4=O)CCCC5)cc3)c3c(N)ncnn23)CC1 [example 18, N-(4-(4-amino-7-(1-isobutyrylpiperidin-4-yl)pyrrolo[2,1-f][1,2,4]triazin-5-yl)phenyl)-2-oxo-1-(pyridin-2-yl)-1,2,4,5,6,7-hexahydropyrazolo[1,5-a]pyridine-3-carboxamide] | 5 to 50 | 5 to 50 |  |  | 
10 | Nc1ncnn2c(C3CCNCC3)cc(-c3ccc(NC(=O)c4c5n(n(-c6ccccc6)c4=O)CCOC5)cc3)c12 [example 2, N-(4-(4-amino-7-(piperidin-4-yl)pyrrolo[2,1-f][1,2,4]triazin-5-yl)phenyl)-2-oxo-1-phenyl-2,4,6,7-tetrahydro-1H-pyrazolo[5,1-c][1,4]oxazine-3-carboxamide] | > 100 | 50 to 100 |  |  | 
11 | CC(C)(O)C(=O)N1CCC(c2cc(-c3ccc(NC(=O)c4c5n(n(-c6ccccn6)c4=O)CCCC5)cc3)c3c(N)ncnn23)CC1 [example 13, N-(4-(4-amino-7-(1-(2-hydroxy-2-methylpropanoyl)piperidin-4-yl)pyrrolo[2,1-f][1,2,4]triazin-5-yl)phenyl)-2-oxo-1-(pyridin-2-yl)-1,2,4,5,6,7-hexahydropyrazolo[1,5-a]pyridine-3-carboxamide] | 5 to 50 | 5 to 50 |  |  | 
12 | CC(C)(C)C(=O)N1CCC(c2cc(-c3ccc(NC(=O)c4c5n(n(-c6ccccn6)c4=O)CCOC5)cc3F)c3c(N)ncnn23)CC1 [example 37] | 5 to 50 | < 5 |  |  | 
13 | Nc1ncnn2c1c(-c1ccc(NC(=O)c3c4n(n(-c5ccccn5)c3=O)CCCC4)cc1)cc2[C@H]1CC[C@H](O)CC1 [example 20, N-(4-(4-amino-7-((1r,4r)-4-hydroxycyclohexyl)pyrrole[2,1-f][1,2,4]triazin-5-yl)phenyl)-2-oxo-1-(pyridin-2-yl)-1,2,4,5,6,7-hexahydropyrazol[1,5-a]pyridine-3-carboxamide] |  | 5 to 50 |  |  | No inhibition
